According to patent publication US20170226507A1, “COORDINATE CONTROL OF PATHOGENIC SIGNALING BY THE MIR-130/301 FAMILY IN PULMONARY HYPERTENSION AND FIBROPROLIFERATIVE DISEASES” (The Brigham and Women's Hospital, Inc., priority 2014, published 2017):

Assays:
Type in all cases: cell-based, human
PAAFs = PAAFs in soft or stiff matrix: fibrotic gene expression, immunoblot, collagen secretion; details: PAAFs
Procedure: Cell Culture and Reagents: Primary human pulmonary arterial adventitial fibroblast cells (PAAFs) were purchased and propagated in FGM cell culture media (Lonza). Experiments were performed at passages 3 to 6. Primary human pulmonary fibroblast cells (PFs) were purchased and propagated in FGM cell culture media (Lonza). Primary human pulmonary arterial endothelial cells (PAECs) were purchased and propagated in EGM-2 cell culture media (Lonza). Experiments were performed at passages 3 to 6. Primary human pulmonary arterial smooth muscle cells (PASMCs) were purchased and propagated in SmGM-2 cell culture media (Lonza). Experiments were performed at passages 3 to 9. HEK293T cells (American Type Culture Collection) were used and cultivated in DMEM containing 10% fetal bovine serum (FBS). Cells were propagated in coated collagen plastic (50 ug/mL) at 37° C. in a humidified 5% CO2 atmosphere. Collagen-coated hydrogel were purchased.
3D cell culture: Protocol was adapted from previously published protocol (Aragona M et al, 2013 Cell). Cells were embedded in a mixture of Growth Factor Reduced Matrigel (BD Biosciences) and Collagen-I (BD Biosciencres). Collagen-I solution was neutralized on ice with 0.1M NaOH in PBS and adjusted with 0.1N HCl to bring the pH of the solution to 7.5. The Collagen-I solution was then mixed on ice with Matrigel to obtain a final concentration of 1.2 mg/ml (soft matrices) or 3 mg/ml (stiff matrices). Cells were trypsinized, counted, resuspended in growth medium; then, 1 volume of cells was mixed with 1 volume of the ECM mix. 6-well plated were precoated with 1 ml of cellfree 50% medium/50% ECM, and left in the incubator until gelled; then, cells were seeded in drop on top of the pregelled ECM. After gelling, wells were supplemented with normal growth medium, which was changed every 2 days during the experiments.
Oligonucleotides and Transfection: Pre-miRNA oligonucleotides (pre-miR-130a, negative control pre-miR-NC1 and premiR-NC2) and custom designed tiny LNA oligonucleotides (tiny-130: 5′-[…]-3′ (SEQ ID NO: 52), and tiny-NC 5′-[…]-3′ (SEQ ID NO: 54)) were purchased from Life Technologies/Ambion and Exiqon, respectively. siRNAs for PPARγ and OCT4/POU5F1 were purchased from Santa Cruz Biotechnology. siRNA for TIMP2 was purchased from Life Technologies. On Target Plus siRNAs for YAP1, TAZ (WWTR1), LRP8 and scrambled control were purchased from ThermoScientific/Dhermacon. PAAF, PF, PAEC and PASMC were plated in collagen-coated dish (50 ug/mL) and transfected 24 h later at 70-80% confluence using pre-miRNA (5 nM), tiny-LNA (20 nM) or siRNA (25 nM) and Lipofectamine 2000 reagent (Life Technologies), according to the manufacturers' instructions. 8 hours after transfection cells were trypsinized and re-plated in the different hydrogel/3D-matrix.
Primary human pulmonary arterial adventitial fibroblast cells (PAAFs) were purchased (ScienCell Research Laboratories) and grown in FGM cell culture media (Lonza). Experiments were performed at passages 3 to 6. Primary human pulmonary arterial endothelial cells (PAECs) were grown in EGM-2 cell culture media (Lonza), and experiments were performed at passages 3 to 6. Primary human pulmonary arterial smooth muscle cells (PASMCs) were cultured in SmGM-2 cell culture media (Lonza), and experiments were performed at passages 3 to 9. HEK293T cells (American Type Culture Collection) were cultivated in DMEM containing 10% fetal bovine serum (FBS). […]

PASMCs = assay: Caspase 3/7 assay, PASMCs
Procedure: Caspase 3,7 activity was quantified using the Caspase-Glo 3/7 Assay (Promega), according to manufacturer's instructions. Briefly, cells were plated in triplicate in 96-well plates and transfected with the appropriate oligonucleotide. Forty-eight hours after transfection, cells were cultured in the presence or absence of serum for twenty-four hours. Cells were then incubated for 1 h with the caspase substrates, and luminescence was quantified.

endothelin-1 = assay: Quantification of endothelin-1 by ELISA in conditioned media of PAECs; details: mimic: normoxia and hypoxia, inhibitors: hypoxia 0.2% O2
Procedure: Twenty-four hours after transfection PAECs were washed in PBS, and medium was replaced by media without serum. Twenty-four hour later conditioned media from PAEC transfected as indicated were collected and endothelin-1 was measured by ELISA kit (Enzo biosciences) according to the manufacturer's protocol. Human plasma sample (see below) and mouse plasma were also tested for endothelin-1 level by ELISA.

tiny-LNA-130: fully LNA-modified tiny LNA oligonucleotide 5′-ATTGCACT-3′ (SEQ ID NO: 3) complementary to the seed region of the miR-130/301 family (all LNA, backbone and methylation of C not given here)
collagen content of conditioned media (collagen secretion) (PAAFs): decreased | ApoE (PAAFs; immunoblot, tiny-LNA-130 in stiff conditions): increased | collagen transcripts, LOX and CTGF (PAAFs; mimic in soft matrix, tiny-LNA-130 in high ECM stiffness): decreased | caspase 3/7 activity (PASMCs; 24 h serum deprivation): no significant modulation | caspase 3/7 activity (PASMCs; serum-replete conditions): No significant modulation | mature endothelin-1 in conditioned media (endothelin-1): decreased endothelin-1 expression to a greater extent than inhibition of miR-130a alone
